Data on ten compounds can be found in ChEMBL document CHEMBL1201862, “PubChem BioAssay data set” (2004).

Common to all, as to test: NCI tumour cell line growth inhibition, 48 h
Experiment [1] deals with A498.
In experiment [2] the test system is COLO 205.
For experiment [3], the system named is DU-145.
Experiment [4] concerns EKVX.
Experiment [5] concerns HCT-15.
Experiment [6] relates to Hs-578T.
Experiment [7] concerns IGROV-1.
Experiment [8] concerns MDA-MB-231.
In experiment [9] the test system is OVCAR-3.
For experiment [10], the system named is PC-3.
Experiment [11] relates to RXF 393.
Experiment [12] has as its system SF-268.
For experiment [13], the system named is SK-MEL-28.
For experiment [14], the system named is SK-MEL-2.
The subject of experiment [15] is SNB-19.
Experiment [16] has as its system SW-620.
Experiment [17] concerns U-251.
Experiment [18] deals with UACC-257.
Experiment [19] relates to UACC-62.

SMILES strings stand for the structures.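 The compound was tested at five concentrations on cells cultured in 96-well plates, with a 48-hour exposure period. GI50 marks 50% less growth.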 Active and inactive are the calls of the source. Rule as the data show it: active = GI50 up to about 1.1 µM and inactive = higher.

For the compound `COC1CC(N)(c2ccccc2)C(O)C(C)O1` (stereo not given), the GI50 in experiment [1] is > 100 µM (inactive); in experiment [2] it was > 100 µM (inactive); in experiment [3], > 100 µM (inactive); in experiment [4], > 100 µM (inactive); in [5], over 100 µM; in experiment [6] it was > 100 µM (inactive). Further, the GI50 in experiment [7], in experiment [8], in experiment [9], in [10], in [11] and in experiment [12] was > 100 µM (inactive) each time. Also, the GI50 in experiment [13], in [14], in experiment [15], in experiment [16], in experiment [17] and in [18] was > 100 µM (inactive) each time. The GI50 in experiment [19] is > 100 µM (inactive).
Take `CN1c2ccccc2S(=O)(=O)n2c(COc3ccc(Cl)cc3)nnc21`: the GI50 is 30.5 µM (inactive) in experiment [1]; > 100 µM (inactive) in experiment [2]; > 100 µM (inactive) in [3]; > 100 µM (inactive) in experiment [4]; over 100 µM in experiment [5]; 43.4 µM (inactive) in experiment [6]. Further, the GI50 in [7] is > 100 µM (inactive); in [8], 44.8 µM (inactive); in [9], > 100 µM (inactive); in [10], > 100 µM (inactive); in experiment [11], 55.1 µM (inactive); in experiment [12], 55 µM (inactive). Moreover, the GI50 in experiment [13] was > 100 µM (inactive); in [14] it was > 100 µM (inactive); in [15], 57.4 µM (inactive); in experiment [16] it was > 100 µM (inactive); in experiment [17] it was 44 µM (inactive); in experiment [18] it was > 100 µM (inactive). In addition, the GI50 in [19] was 56.2 µM (inactive).
As to `COc1c(OC)c(O)c2c(=O)c(OC)c(-c3ccc4c(c3)OCO4)oc2c1O`, the GI50 in experiment [1] is > 100 µM (inactive); in experiment [2] it was > 100 µM (inactive); in experiment [3], > 100 µM (inactive); in [4] it was > 100 µM (inactive); in experiment [5], over 100 µM; in [6] it was > 100 µM (inactive). Further, the GI50 in [7] is > 100 µM (inactive); in experiment [8] it was > 100 µM (inactive); in experiment [9], > 100 µM (inactive); in experiment [10], > 100 µM (inactive); in experiment [11], 91.4 µM (inactive); in experiment [12], > 100 µM (inactive). Moreover, the GI50 in experiment [13] was > 100 µM (inactive); in experiment [14], > 100 µM (inactive); in experiment [15], > 100 µM (inactive); in experiment [16], > 100 µM (inactive); in experiment [17], > 100 µM (inactive); in experiment [18], 67 µM (inactive). Moreover, the GI50 in experiment [19] was > 100 µM (inactive).
Take `C[C@@]1(O)C2C3CC4C5C3C1[C@](O)(C42)[C@H]5Br` (stereo not given in full): the GI50 in experiment [1] is > 100 µM (inactive); in experiment [2], > 100 µM (inactive); in experiment [3] it was > 100 µM (inactive); in [4], > 100 µM (inactive); in experiment [5] it was over 100 µM; in [6] it was > 100 µM (inactive). Besides, the GI50 in experiment [7], in experiment [8], in [9], in [10], in experiment [11] and in [12] was > 100 µM (inactive) throughout. Besides, the GI50 in [13], in [14], in [15], in experiment [16], in [17] and in [18] was > 100 µM (inactive) in each case. Besides, in experiment [19], the GI50 is > 100 µM (inactive).
For the compound `COc1ccc(NC(=S)Nc2cc(C)cc(C)n2)cc1`, the GI50 in [1] is > 100 µM (inactive); in [2] it was > 100 µM (inactive); in [3], > 100 µM (inactive); in experiment [4] it was > 100 µM (inactive); in experiment [5] it was over 100 µM; in experiment [6], > 100 µM (inactive). For the same compound, the GI50 in [7], in experiment [8], in [9], in [10], in experiment [11] and in [12] was > 100 µM (inactive) in each case. The GI50 in experiment [13], in experiment [14], in [15], in experiment [16], in experiment [17] and in experiment [18] was > 100 µM (inactive) throughout. In experiment [19], the GI50 was > 100 µM (inactive).
Regarding `CC1CCCc2c(C#N)c(N)nc(-c3ccc(Cl)cc3)c21` (stereo not given), the GI50 in experiment [1] is 68.4 µM (inactive); in experiment [2], 18.8 µM (inactive); in experiment [3], 33.7 µM (inactive); in [4], 14.7 µM (inactive); in experiment [5], 11.7 µM; in experiment [6], 32.4 µM (inactive). Moreover, the GI50 in experiment [7] is 14.4 µM (inactive); in [8], 22.1 µM (inactive); in [9] it was 12.6 µM (inactive); in [10] it was 4.68 µM (inactive); in experiment [11] it was 6.87 µM (inactive); in experiment [12] it was 31.1 µM (inactive). The GI50 is 27.6 µM (inactive) in [13]; 15.6 µM (inactive) in experiment [14]; 39.4 µM (inactive) in experiment [15]; 53.6 µM (inactive) in experiment [16]; 22.2 µM (inactive) in experiment [17]; 25.4 µM (inactive) in experiment [18]. Besides, the GI50 in experiment [19] was 15.8 µM (inactive).
Regarding `N#C/C(=C\Nc1ccccn1)C(=O)c1ccco1`, the GI50 was > 100 µM (inactive) in experiment [1]; > 100 µM (inactive) in [2]; > 100 µM (inactive) in [3]; > 100 µM (inactive) in experiment [4]; over 100 µM in experiment [5]; > 100 µM (inactive) in experiment [6]. Also, the GI50 in [7], in [8], in [9], in [10], in experiment [11] and in experiment [12] was > 100 µM (inactive) each time. The GI50 in [13], in [14], in [15], in [16], in experiment [17] and in experiment [18] was > 100 µM (inactive) each time. Also, the GI50 in experiment [19] is > 100 µM (inactive).
Regarding `O=C(O)C1CCc2ccc3ccccc3c2C1c1cccc2ccccc12` (stereo not given), the GI50 in experiment [1] is 30.8 µM (inactive); in [2], 25.9 µM (inactive); in experiment [3], 25.8 µM (inactive); in [4], 30.5 µM (inactive); in experiment [5], 19.4 µM; in experiment [6] it was 33.2 µM (inactive). Also, the GI50 in experiment [7] was 22.9 µM (inactive); in experiment [8], 30.2 µM (inactive); in experiment [9], 16.3 µM (inactive); in experiment [10] it was 19.3 µM (inactive); in experiment [11] it was 19 µM (inactive); in experiment [12], 27.9 µM (inactive). Besides, the GI50 in experiment [13] was 18.7 µM (inactive); in experiment [14] it was 18.2 µM (inactive); in [15], 19.3 µM (inactive); in [16] it was 28.2 µM (inactive); in experiment [17], 17.9 µM (inactive); in [18] it was 25.9 µM (inactive). In experiment [19], the GI50 is 15.1 µM (inactive).
For the compound `O=c1c2c3c(sc2nc(S)n1-c1ccccc1)CCCc1ccc([N+](=O)[O-])cc1-3`, the GI50 is 41 µM (inactive) in [1]; > 100 µM (inactive) in experiment [2]; 48.9 µM (inactive) in [3]; > 100 µM (inactive) in experiment [4]; 22 µM in [5]; 87.3 µM (inactive) in experiment [6]. Moreover, the GI50 was 14.2 µM (inactive) in experiment [7]; > 100 µM (inactive) in experiment [8]; 32.1 µM (inactive) in [9]; 59.7 µM (inactive) in experiment [10]; 16.9 µM (inactive) in experiment [11]; 36.1 µM (inactive) in experiment [12]. Besides, the GI50 in [13] was > 100 µM (inactive); in [14] it was > 100 µM (inactive); in [15] it was 40.8 µM (inactive); in [16] it was 10.4 µM (inactive); in experiment [17] it was 39.8 µM (inactive); in experiment [18] it was 29.2 µM (inactive). For the same compound, in experiment [19], the GI50 was 26.7 µM (inactive).
In the case of `CCCCCCCCCC[C@H](O)[C@H]1CC[C@@H]([C@@H](O)CC[C@H](O)[C@@H]2CCC(CCCCCCC[C@@H](O)CC3=C[C@H](C)OC3=O)O2)O1` (stereo not given in full), the GI50 was 3.16 µM (inactive) in [1]; 2.37 µM (inactive) in experiment [2]; 3.6 µM (inactive) in experiment [3]; 1.89 µM (inactive) in experiment [4]; 3.64 µM in [5]; 1.81 µM (inactive) in [6]. Also, the GI50 in experiment [7] is 1.78 µM (inactive); in experiment [8], 2.62 µM (inactive); in [9], 1.35 µM (inactive); in [10], 1.57 µM (inactive); in experiment [11], 2.66 µM (inactive); in [12], 1.85 µM (inactive). Further, the GI50 was 1.93 µM (inactive) in [13]; 1.39 µM (inactive) in experiment [14]; 1.61 µM (inactive) in experiment [15]; 1.69 µM (inactive) in experiment [16]; 1.97 µM (inactive) in [17]; 0.115 µM (active) in experiment [18]. Moreover, in experiment [19], the GI50 is 1.02 µM (active).
